Active and inactive are the calls of the source. No cut-off for these calls is given here.
What was measured:
[1] = biological target: Large neutral amino acids transporter small subunit 1 (Homo sapiens) (UniProt Q01650); test: Inhibition of human LAT1 at 100 uM relative to control
[2] = biological target: T1, Signal transducer and activator of transcription 5A (Homo sapiens) (UniProt P42229); test: Inhibition of STAT5 in IL-3 and CpG-A-stimulated human plasmacytoid dendritic cells at 1 to 2 uM assessed as decrease in TNF production in presence of 100 uM sulfasalazine; assay type: cell-based; conditions: Plasmacytoid dendritic cell, dose 1-2 µM
T1 sequence (whole entry): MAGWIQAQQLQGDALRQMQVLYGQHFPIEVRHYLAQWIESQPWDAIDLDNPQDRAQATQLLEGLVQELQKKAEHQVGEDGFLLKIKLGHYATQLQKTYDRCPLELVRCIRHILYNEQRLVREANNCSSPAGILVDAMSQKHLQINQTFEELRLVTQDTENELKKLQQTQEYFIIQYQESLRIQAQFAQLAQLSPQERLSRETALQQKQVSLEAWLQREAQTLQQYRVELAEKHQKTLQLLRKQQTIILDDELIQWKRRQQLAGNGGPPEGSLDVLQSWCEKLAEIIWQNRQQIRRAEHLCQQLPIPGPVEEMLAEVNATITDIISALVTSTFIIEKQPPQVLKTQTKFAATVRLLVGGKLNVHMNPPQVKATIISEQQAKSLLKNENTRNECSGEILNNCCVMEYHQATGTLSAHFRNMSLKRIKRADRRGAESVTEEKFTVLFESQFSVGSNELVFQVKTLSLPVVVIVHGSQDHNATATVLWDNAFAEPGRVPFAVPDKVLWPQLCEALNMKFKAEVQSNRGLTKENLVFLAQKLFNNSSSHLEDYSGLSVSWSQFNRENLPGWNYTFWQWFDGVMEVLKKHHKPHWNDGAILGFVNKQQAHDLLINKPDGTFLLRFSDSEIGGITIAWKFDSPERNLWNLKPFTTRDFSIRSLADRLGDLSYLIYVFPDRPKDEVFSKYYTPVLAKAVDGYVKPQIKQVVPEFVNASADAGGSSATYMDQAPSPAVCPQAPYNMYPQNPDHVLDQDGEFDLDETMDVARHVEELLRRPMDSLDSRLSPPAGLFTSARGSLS

[3] = biological target: T1, Signal transducer and activator of transcription 5A (Homo sapiens); test: Inhibition of STAT5 in IL-3 and CpG-A-stimulated human plasmacytoid dendritic cells at 1 to 2 uM assessed as decrease in IFN-alpha production in presence of 100 uM sulfasalazine; assay type: cell-based; conditions: Plasmacytoid dendritic cell, dose 1-2 µM
[4] = tested on: Plasmacytoid dendritic cell; test: Inhibition of SLC7A5/SLC3A2 in CpG-A-stimulated human plasmacytoid dendritic cells at 10 uM assessed as decrease in kynurenine transport; assay type: cell-based
[5] = tested on: Plasmacytoid dendritic cell; test: Inhibition of F1F0-ATP synthase in CpG-A-stimulated human plasmacytoid dendritic cells at 1 uM assessed as reduction in TNF production in presence of 10 uM heptelidic acid; assay type: cell-based
[6] = tested on: Plasmacytoid dendritic cell; test: Inhibition of F1F0-ATP synthase in human plasmacytoid dendritic cells at 1 uM assessed as decrease in TNF production; assay type: cell-based
[7] = tested on: Plasmacytoid dendritic cell; test: Inhibition of F1F0-ATP synthase in CpG-A-stimulated human plasmacytoid dendritic cells at 1 uM assessed as reduction in IFN-alpha production in presence of 10 uM heptelidic acid; assay type: cell-based
[8] = tested on: Plasmacytoid dendritic cell; test: Inhibition of F1F0-ATP synthase in human plasmacytoid dendritic cells at 1 uM assessed as decrease in IFN-alpha production; assay type: cell-based
[9] = biological target: Tyrosine-protein kinase JAK2 (Homo sapiens) (UniProt O60674); test: Inhibition of JAK2 in CpG-A and GM-CSF-activated human plasmacytoid dendritic cells at 1 uM assessed as decrease in kynurenine uptake; assay type: cell-based; conditions: Plasmacytoid dendritic cell
Chain of Tyrosine-protein kinase JAK2 (Homo sapiens) (O60674 whole entry): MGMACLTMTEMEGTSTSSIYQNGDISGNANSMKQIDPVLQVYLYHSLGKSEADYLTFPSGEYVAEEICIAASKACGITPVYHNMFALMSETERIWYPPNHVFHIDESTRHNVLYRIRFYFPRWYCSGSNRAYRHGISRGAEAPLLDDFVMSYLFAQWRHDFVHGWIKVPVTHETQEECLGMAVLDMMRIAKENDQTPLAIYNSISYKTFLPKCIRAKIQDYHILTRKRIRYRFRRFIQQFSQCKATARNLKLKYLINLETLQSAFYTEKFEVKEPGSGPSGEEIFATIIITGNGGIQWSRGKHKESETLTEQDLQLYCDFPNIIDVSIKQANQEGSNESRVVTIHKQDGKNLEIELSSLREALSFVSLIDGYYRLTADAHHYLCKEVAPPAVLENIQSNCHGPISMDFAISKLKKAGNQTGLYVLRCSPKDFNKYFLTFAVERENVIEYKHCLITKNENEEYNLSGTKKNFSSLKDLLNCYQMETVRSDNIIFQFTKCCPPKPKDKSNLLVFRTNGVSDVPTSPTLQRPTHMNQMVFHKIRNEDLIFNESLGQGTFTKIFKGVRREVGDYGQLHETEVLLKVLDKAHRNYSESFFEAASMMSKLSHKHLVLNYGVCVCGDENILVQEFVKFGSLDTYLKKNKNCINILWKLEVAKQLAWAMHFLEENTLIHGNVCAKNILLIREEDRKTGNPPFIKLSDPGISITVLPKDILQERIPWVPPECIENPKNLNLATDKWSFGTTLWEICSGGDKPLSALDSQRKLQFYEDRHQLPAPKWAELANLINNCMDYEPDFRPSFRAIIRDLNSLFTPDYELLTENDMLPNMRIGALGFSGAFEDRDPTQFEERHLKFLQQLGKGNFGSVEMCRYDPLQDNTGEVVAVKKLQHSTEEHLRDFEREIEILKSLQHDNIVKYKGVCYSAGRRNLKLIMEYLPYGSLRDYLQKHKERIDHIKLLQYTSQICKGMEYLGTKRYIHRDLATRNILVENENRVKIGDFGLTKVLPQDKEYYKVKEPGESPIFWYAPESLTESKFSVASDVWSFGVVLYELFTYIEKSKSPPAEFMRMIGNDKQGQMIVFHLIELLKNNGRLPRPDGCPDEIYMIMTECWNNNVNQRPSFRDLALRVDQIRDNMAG

[10] = biological target: Tyrosine-protein kinase JAK2 (Homo sapiens) (UniProt O60674); test: Inhibition of JAK2 in CpG-A and GM-CSF-activated human plasmacytoid dendritic cells at 1 uM assessed as decrease in mTORC1 activity; assay type: cell-based; conditions: Plasmacytoid dendritic cell
[11] = biological target: Tyrosine-protein kinase JAK2 (Homo sapiens) (UniProt O60674); test: Inhibition of JAK2 in CpG-A and GM-CSF-activated human plasmacytoid dendritic cells at 1 uM assessed as decrease in TNF production; assay type: cell-based; conditions: Plasmacytoid dendritic cell
[12] = biological target: Tyrosine-protein kinase JAK2 (Homo sapiens) (UniProt O60674); test: Inhibition of JAK2 in CpG-A and GM-CSF-activated human plasmacytoid dendritic cells at 1 uM assessed as decrease in IFN-alpha production; assay type: cell-based; conditions: Plasmacytoid dendritic cell
[13] = biological target: Tyrosine-protein kinase JAK2 (Homo sapiens) (UniProt O60674); test: Inhibition of JAK2 in IL3- and CpG-A-activated human plasmacytoid dendritic cells at 20 nM assessed as decrease in ENPP2/IFNA2 expression; assay type: cell-based; conditions: Plasmacytoid dendritic cell
[14] = biological target: Tyrosine-protein kinase JAK2 (Homo sapiens) (UniProt O60674); test: Inhibition of JAK2 in TLR9-activated human plasmacytoid dendritic cells at 20 nM assessed as decrease in CpG-A stimulated SLC7A11 expression; assay type: cell-based; conditions: Plasmacytoid dendritic cell
mTORC1 (Homo sapiens) [15] = biological target: T2, mTORC1 (Homo sapiens) (UniProt P42345+Q8N122+Q9BVC4); conditions: Plasmacytoid dendritic cell, dose 20.0 nM
T2 sequence (Q8N122 whole entry, looked up, other chains not shown): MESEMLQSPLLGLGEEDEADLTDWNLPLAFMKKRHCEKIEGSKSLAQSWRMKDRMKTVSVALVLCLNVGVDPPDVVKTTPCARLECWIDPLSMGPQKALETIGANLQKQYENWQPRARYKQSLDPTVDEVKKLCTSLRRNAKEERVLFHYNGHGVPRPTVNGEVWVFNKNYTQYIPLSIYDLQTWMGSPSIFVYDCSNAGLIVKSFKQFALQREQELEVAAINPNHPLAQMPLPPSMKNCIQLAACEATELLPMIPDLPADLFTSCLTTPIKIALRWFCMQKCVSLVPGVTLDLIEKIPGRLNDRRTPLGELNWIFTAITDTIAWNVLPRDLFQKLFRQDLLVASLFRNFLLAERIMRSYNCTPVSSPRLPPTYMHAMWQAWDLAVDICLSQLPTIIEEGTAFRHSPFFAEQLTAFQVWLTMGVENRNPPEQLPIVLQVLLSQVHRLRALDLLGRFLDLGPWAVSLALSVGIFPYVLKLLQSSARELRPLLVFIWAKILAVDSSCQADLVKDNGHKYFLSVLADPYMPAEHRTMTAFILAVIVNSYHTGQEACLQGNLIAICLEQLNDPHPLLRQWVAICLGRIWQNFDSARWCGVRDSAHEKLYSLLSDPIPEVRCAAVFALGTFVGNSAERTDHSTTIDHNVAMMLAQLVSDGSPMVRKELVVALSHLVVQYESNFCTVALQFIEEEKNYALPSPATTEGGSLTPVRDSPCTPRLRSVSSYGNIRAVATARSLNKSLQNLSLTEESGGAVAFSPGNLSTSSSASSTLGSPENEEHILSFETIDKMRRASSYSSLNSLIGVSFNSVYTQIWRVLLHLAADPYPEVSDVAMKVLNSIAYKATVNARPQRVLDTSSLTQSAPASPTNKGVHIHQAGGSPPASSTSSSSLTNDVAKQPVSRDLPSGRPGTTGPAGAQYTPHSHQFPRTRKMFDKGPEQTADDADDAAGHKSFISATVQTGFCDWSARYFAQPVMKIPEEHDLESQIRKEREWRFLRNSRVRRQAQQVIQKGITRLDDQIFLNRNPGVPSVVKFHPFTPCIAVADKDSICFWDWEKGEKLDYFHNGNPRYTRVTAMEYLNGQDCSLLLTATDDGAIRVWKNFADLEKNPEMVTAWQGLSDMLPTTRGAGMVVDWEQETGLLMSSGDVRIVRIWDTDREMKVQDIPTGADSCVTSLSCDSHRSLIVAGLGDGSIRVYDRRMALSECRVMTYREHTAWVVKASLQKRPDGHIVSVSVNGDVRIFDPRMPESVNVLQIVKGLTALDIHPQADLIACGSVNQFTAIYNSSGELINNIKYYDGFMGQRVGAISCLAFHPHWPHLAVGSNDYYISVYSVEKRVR
T2 sequence (Q9BVC4 whole entry, looked up, other chains not shown): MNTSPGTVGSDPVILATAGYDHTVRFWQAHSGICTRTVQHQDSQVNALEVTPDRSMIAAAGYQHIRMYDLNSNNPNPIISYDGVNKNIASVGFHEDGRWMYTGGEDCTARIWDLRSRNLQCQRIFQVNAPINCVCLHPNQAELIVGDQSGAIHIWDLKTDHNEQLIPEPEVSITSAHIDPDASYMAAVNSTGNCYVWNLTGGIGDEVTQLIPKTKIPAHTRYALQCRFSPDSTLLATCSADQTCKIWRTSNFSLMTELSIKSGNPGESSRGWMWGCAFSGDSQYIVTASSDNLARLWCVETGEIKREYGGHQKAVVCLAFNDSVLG
Description: Inhibition of mTORC1 in CpG-A-stimulated human plasmacytoid dendritic cells at 20 nM assessed as decrease in lactate release

[16] = biological target: Tyrosine-protein kinase JAK2 (Homo sapiens) (UniProt O60674); test: Inhibition of JAK2 in IL3- and CpG-A-activated human plasmacytoid dendritic cells at 20 nM assessed as decrease in MYO1E/IFNA2 expression; assay type: cell-based; conditions: Plasmacytoid dendritic cell
mTORC1 (Homo sapiens) [17] = biological target: T2, mTORC1 (Homo sapiens); conditions: Plasmacytoid dendritic cell, dose 250.0 nM
Description: Inhibition of mTORC1 in CpG-A-stimulated human plasmacytoid dendritic cells at 250 nM assessed as decrease in lactate release

[18] = biological target: T1, Signal transducer and activator of transcription 5A (Homo sapiens); test: Inhibition of STAT5 in IL-3 and CpG-A-stimulated human plasmacytoid dendritic cells at 10 to 50 nM assessed as decrease in TNF production in presence of 100 uM sulfasalazine; assay type: cell-based; conditions: Plasmacytoid dendritic cell, dose 10-50 nM
[19] = biological target: T1, Signal transducer and activator of transcription 5A (Homo sapiens); test: Inhibition of STAT5 in IL-3 and CpG-A-stimulated human plasmacytoid dendritic cells at 10 to 50 nM assessed as decrease in IFN-alpha production in presence of 100 uM sulfasalazine; assay type: cell-based; conditions: Plasmacytoid dendritic cell, dose 10-50 nM

Chain of Large neutral amino acids transporter small subunit 1 (Homo sapiens) (Q01650 whole entry): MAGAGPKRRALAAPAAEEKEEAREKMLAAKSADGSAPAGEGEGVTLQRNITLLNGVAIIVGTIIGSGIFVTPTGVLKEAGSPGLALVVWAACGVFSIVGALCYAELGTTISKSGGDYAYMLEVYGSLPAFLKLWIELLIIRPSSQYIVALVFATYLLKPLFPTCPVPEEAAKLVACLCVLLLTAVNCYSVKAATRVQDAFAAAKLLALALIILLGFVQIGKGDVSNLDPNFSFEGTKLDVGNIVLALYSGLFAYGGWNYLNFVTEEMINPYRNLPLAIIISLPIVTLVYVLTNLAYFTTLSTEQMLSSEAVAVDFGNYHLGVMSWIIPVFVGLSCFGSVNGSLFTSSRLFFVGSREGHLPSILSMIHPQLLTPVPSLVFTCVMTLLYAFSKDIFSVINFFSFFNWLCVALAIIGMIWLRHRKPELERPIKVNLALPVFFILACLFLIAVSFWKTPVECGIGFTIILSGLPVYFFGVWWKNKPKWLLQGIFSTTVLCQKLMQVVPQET

SMILES: N#C/C=N/c1c(SS)c(-c2ccccc2)nn1Cc1ccccc1
- inhibition [1]: > 90%

SMILES: O=c1[nH]c2ccccc2n1C1CCN(CCCC(c2ccc(F)cc2)c2ccc(F)cc2)CC1
- inhibition [2]: Active
- inhibition [3]: Active

SMILES: N#Cc1c(Br)cccc1/N=c1\ssnc1Cl
- inhibition [1]: > 90%

SMILES: NC1(C(=O)O)CC2CCC1C2 (configuration not stated)
- inhibition [4]: Active

SMILES: CC[C@H]1/C=C/C=C/C[C@@H](C)[C@H](O)[C@@](C)(O)C(=O)[C@@H](C)[C@H](O)[C@@H](C)C(=O)[C@@H](C)[C@H](O)[C@@H](C)/C=C/C(=O)O[C@@H]2[C@H](C)[C@H](CC1)O[C@]1(CC[C@H](C)[C@H](C[C@@H](C)O)O1)[C@H]2C
- inhibition [5]: Active
- inhibition [6]: inactive
- inhibition [7]: Active
- inhibition [8]: Active

SMILES: CC(C)(C)c1cc(CN(C(=O)CN(Cc2ccc(Cl)cc2)S(=O)(=O)c2c(F)c(F)c(F)c(F)c2F)c2ccc(C(=O)O)cc2)cc(C(C)(C)C)c1
- inhibition [2]: Active
- inhibition [3]: Active

SMILES: Cc1cc(Nc2nc(N[C@@H](C)c3ncc(F)cn3)ncc2Cl)[nH]n1
- inhibition [9]: Active
- inhibition [10]: Active
- inhibition [11]: Active
- inhibition [12]: Active

SMILES: CO[C@H]1CC2CC[C@@H](C)[C@@](O)(O2)C(=O)C(=O)N2CCCC[C@H]2C(=O)O[C@H]([C@H](C)C[C@@H]2CC[C@@H](O)[C@H](OC)C2)CC(=O)[C@H](C)/C=C(\C)[C@@H](O)[C@@H](OC)C(=O)[C@H](C)C[C@H](C)/C=C/C=C/C=C/1C
- inhibition [13]: Active
- inhibition [14]: Active
- inhibition (mTORC1 (Homo sapiens) [15]): Active
- inhibition [16]: Active
- inhibition (mTORC1 (Homo sapiens) [17]): Active

SMILES: CN(C)CCNc1nc2ccccc2c2[nH]c3ccccc3c12
- inhibition [18]: Active
- inhibition [19]: Active
